# Source: patent US20230109010A1, “PESTICIDE COMPOSITIONS WITH SUPRAMOLECULAR STRUCTURES FOR AGRICULTURAL USE” (BPS JUST ENERGY TECHNOLOGY, LLC, priority 2020, published 2023)
# Tests used:
# palmer amaranth [1] = assay: Field trial in corn at V3, broadcast treatment on 2-4 inch weeds, % weed control; type: in vivo, Amaranthus palmeri
# Description: (§1) The herbicides tested were glufosinate, glyphosate, and mesotrione. Each herbicide was combined at the specified rate with either deionized water or SymMAX™ supramolecular host water mixture commercially available from Shotwell Hydrogenics at 15 gallons per acre (GPA). Specified rates for glufosinate were 22 ounces per acre, 11 ounces per acre, and 5.5 ounces per acre. Specified rates for glyphosate were 22 ounces per acre, 11 ounces per acre, and 5.5 ounces per acre. Specified rates for mesotrione were 3 ounces per acre, 2 ounces per acre, and 1 ounce per acre.
# (§2) This example was conducted as a 4 replicate, RCBD (randomized control block design) in Quitman, GA. An untreated control was used as a standard that provided no weed control and no phytotoxicity. All treatments were compared to the untreated control. Counted dead weeds and living weeds were used to determine % weed control. The untreated control was also used to determine % crop phytotoxicity for the crop. Typical indications of phytotoxicity include chlorosis, stunting, epinasty, and/or leaf burn.
# (§3) The trial ran for 14 days with weekly data assessments taken on % crop phytotoxicity and % weed control of four key species: palmer amaranth (Amaranthus palmeri), ivyleaf morning glory (Ipomoea hederacea), fall panicum (Panicum dichotomiflorum) and large crabgrass (Digitaria sanguinalis The test field was over seeded with weed seed obtained from the University of Georgia prior to corn planting. Treatments were applied as a broadcast treatment when corn had reached physiological growth stage V3 and weeds were in the 2-4″ size range. Treatments were applied at various rates ranging from about 1 ounce per acre to about 22 ounces per acre. Tables 9-10 show the % weed control when the weeds are treated with glufosinate. Tables 11-12 show the % weed control when the weeds are treated with glyphosphate. Tables 13-14 show the % weed control when the weeds are treated with mesotrione.
# ivyleaf morning glory = assay: as above; type: in vivo, Ipomoea hederacea
# Description: as §1, §2, §3
# large crabgrass [2] = assay: as above; type: in vivo, Digitaria sanguinalis
# Description: as §1, §2, §3
# fall panicum [3] = assay: as above; type: in vivo, Panicum dichotomiflorum
# Description: as §1, §2, §3
# palmer amaranth [4] = assay: Field trial in corn, herbicide applied 3 days after planting, % weed control; type: in vivo, Amaranthus palmeri
# Procedure: (§4) The herbicides tested were acetochlor and s-metolachlor. Each herbicide was combined at the specified rate with either deionized water or SymMAX™ supramolecular host chemistry that is commercially available from Shotwell Hydrogenics at 15 gallons per acre (GPA). Specified rates for acetochlor were 0.5 parts per acre, 1 part per acre, and 2 parts per acre. […]
# as §2
# (§5) The trial ran for 28 days with weekly data assessments taken on % crop phytotoxicity and % weed control of three key species: palmer amaranth (Amaranthus palmeri), fall panicum (Panicum dichotomiflorum) and large crabgrass (Digitaria sanguinalis). The test field was over seeded with weed seed obtained from the University of Georgia prior to corn planting. Treatments were applied 3 days after planting as a broadcast application at various rates ranging from about 0.5 parts per acre to about 2 parts per acre. Tables 1-4 show the % weed control when the weeds are treated with acetachlor. Tables 4-8 show the % weed control when the weeds are treated with s-metolachlor.
# large crabgrass [5] = assay: as above; type: in vivo, Digitaria sanguinalis
# Procedure: as §4, §2, §5
# fall panicum [6] = assay: as above; type: in vivo, Panicum dichotomiflorum
# Procedure: as §4, §2, §5
# [7] = 7 days, glyphosate 5.5 ounces/acre
# [8] = 7 days, glyphosate 11 ounces/acre
# [9] = 7 days, glyphosate 22 ounces/acre
# [10] = 14 days, glyphosate 5.5 ounces/acre
# [11] = 14 days, glyphosate 11 ounces/acre
# [12] = 14 days, glyphosate 22 ounces/acre
# [13] = 7 days, s-metolachlor 0.75 part/acre
# [14] = 7 days, s-metolachlor 1 part/acre
# [15] = 7 days, s-metolachlor 1.5 parts/acre
# [16] = 14 days, s-metolachlor 0.75 part/acre
# [17] = 14 days, s-metolachlor 1 part/acre
# [18] = 14 days, s-metolachlor 1.5 parts/acre
# [19] = 21 days, s-metolachlor 0.75 part/acre
# [20] = 21 days, s-metolachlor 1 part/acre
# [21] = 21 days, s-metolachlor 1.5 parts/acre
# [22] = 28 days, s-metolachlor 0.75 part/acre
# [23] = 28 days, s-metolachlor 1 part/acre
# [24] = 28 days, s-metolachlor 1.5 parts/acre
compound,measurement,setting,value
"O=C(O)CNCP(=O)(O)O [Glyphosate, glyphosate]",% WEED CONTROL FOR PALMER AMARANTH,palmer amaranth [1]; [7],63.8%
same,% WEED CONTROL FOR PALMER AMARANTH,palmer amaranth [1]; [8],76.4%
same,% WEED CONTROL FOR PALMER AMARANTH,palmer amaranth [1]; [9],81.9%
same,% WEED CONTROL FOR PALMER AMARANTH,palmer amaranth [1]; [10],58.3%
same,% WEED CONTROL FOR PALMER AMARANTH,palmer amaranth [1]; [11],75.8%
same,% WEED CONTROL FOR PALMER AMARANTH,palmer amaranth [1]; [12],83.5%
same,% WEED CONTROL FOR IVYLEAF MORNINGLORY,ivyleaf morning glory; [7],14.3%
same,% WEED CONTROL FOR IVYLEAF MORNINGLORY,ivyleaf morning glory; [8],13.5%
same,% WEED CONTROL FOR IVYLEAF MORNINGLORY,ivyleaf morning glory; [9],28.0%
same,% WEED CONTROL FOR IVYLEAF MORNINGLORY,ivyleaf morning glory; [10],9.7%
same,% WEED CONTROL FOR IVYLEAF MORNINGLORY,ivyleaf morning glory; [11],59.8%
same,% WEED CONTROL FOR IVYLEAF MORNINGLORY,ivyleaf morning glory; [12],76.3%
same,% WEED CONTROL FOR LARGE CRABGRASS,large crabgrass [2]; [7],90.8%
same,% WEED CONTROL FOR LARGE CRABGRASS,large crabgrass [2]; [8],97.8%
same,% WEED CONTROL FOR LARGE CRABGRASS,large crabgrass [2]; [9],100.0%
same,% WEED CONTROL FOR LARGE CRABGRASS,large crabgrass [2]; [10],89.0%
same,% WEED CONTROL FOR LARGE CRABGRASS,large crabgrass [2]; [11],94.0%
same,% WEED CONTROL FOR LARGE CRABGRASS,large crabgrass [2]; [12],98.0%
same,% WEED CONTROL FOR FALL PANICUM,fall panicum [3]; [7],85.8%
same,% WEED CONTROL FOR FALL PANICUM,fall panicum [3]; [8],97.5%
same,% WEED CONTROL FOR FALL PANICUM,fall panicum [3]; [9],98.8%
same,% WEED CONTROL FOR FALL PANICUM,fall panicum [3]; [10],81.8%
same,% WEED CONTROL FOR FALL PANICUM,fall panicum [3]; [11],95.4%
same,% WEED CONTROL FOR FALL PANICUM,fall panicum [3]; [12],98.4%
"CCc1cccc(C)c1N(C(=O)CCl)[C@@H](C)COC [S-metolachlor, s-metolachlor]",% WEED CONTROL FOR PALMER AMARANTH,palmer amaranth [4]; [13],96.0%
same,% WEED CONTROL FOR PALMER AMARANTH,palmer amaranth [4]; [14],99.3%
same,% WEED CONTROL FOR PALMER AMARANTH,palmer amaranth [4]; [15],100.0%
same,% WEED CONTROL FOR PALMER AMARANTH,palmer amaranth [4]; [16],94.3%
same,% WEED CONTROL FOR PALMER AMARANTH,palmer amaranth [4]; [17],98.0%
same,% WEED CONTROL FOR PALMER AMARANTH,palmer amaranth [4]; [18],100.0%
same,% WEED CONTROL FOR PALMER AMARANTH,palmer amaranth [4]; [19],96.0%
same,% WEED CONTROL FOR PALMER AMARANTH,palmer amaranth [4]; [20],99.0%
same,% WEED CONTROL FOR PALMER AMARANTH,palmer amaranth [4]; [21],100.0%
same,% WEED CONTROL FOR PALMER AMARANTH,palmer amaranth [4]; [22],98.8%
same,% WEED CONTROL FOR PALMER AMARANTH,palmer amaranth [4]; [23],100.0%
same,% WEED CONTROL FOR PALMER AMARANTH,palmer amaranth [4]; [24],100.0%
same,% WEED CONTROL FOR LARGE CRABGRASS,large crabgrass [5]; [13],92.0%
same,% WEED CONTROL FOR LARGE CRABGRASS,large crabgrass [5]; [14],99.0%
same,% WEED CONTROL FOR LARGE CRABGRASS,large crabgrass [5]; [15],100.0%
same,% WEED CONTROL FOR LARGE CRABGRASS,large crabgrass [5]; [16],82.8%
same,% WEED CONTROL FOR LARGE CRABGRASS,large crabgrass [5]; [17],89.0%
same,% WEED CONTROL FOR LARGE CRABGRASS,large crabgrass [5]; [18],98.0%
same,% WEED CONTROL FOR LARGE CRABGRASS,large crabgrass [5]; [19],91.3%
same,% WEED CONTROL FOR LARGE CRABGRASS,large crabgrass [5]; [20],84.3%
same,% WEED CONTROL FOR LARGE CRABGRASS,large crabgrass [5]; [21],93.0%
same,% WEED CONTROL FOR LARGE CRABGRASS,large crabgrass [5]; [22],90.0%
same,% WEED CONTROL FOR LARGE CRABGRASS,large crabgrass [5]; [23],99.7%
same,% WEED CONTROL FOR LARGE CRABGRASS,large crabgrass [5]; [24],100.0%
same,% WEED CONTROL FOR FALL PANICUM,fall panicum [6]; [13],91.3%
same,% WEED CONTROL FOR FALL PANICUM,fall panicum [6]; [14],97.5%
same,% WEED CONTROL FOR FALL PANICUM,fall panicum [6]; [15],100.0%
same,% WEED CONTROL FOR FALL PANICUM,fall panicum [6]; [16],83.5%
same,% WEED CONTROL FOR FALL PANICUM,fall panicum [6]; [17],91.8%
same,% WEED CONTROL FOR FALL PANICUM,fall panicum [6]; [18],97.8%
same,% WEED CONTROL FOR FALL PANICUM,fall panicum [6]; [19],90.1%
same,% WEED CONTROL FOR FALL PANICUM,fall panicum [6]; [20],89.4%
same,% WEED CONTROL FOR FALL PANICUM,fall panicum [6]; [21],98.9%
same,% WEED CONTROL FOR FALL PANICUM,fall panicum [6]; [22],88.3%
same,% WEED CONTROL FOR FALL PANICUM,fall panicum [6]; [23],97.3%
same,% WEED CONTROL FOR FALL PANICUM,fall panicum [6]; [24],100.0%
